Experimental findings from PMC8203801 (Communications Biology, 2021) are described below.

This assay concerns the target HSA (Homo sapiens, UniProt P02768). Put plainly: Dansylsarcosine (DS) binding to prepared HSA, fluorescence titration. The settings on record: range over samples.

Sequence of HSA (P02768 25-609): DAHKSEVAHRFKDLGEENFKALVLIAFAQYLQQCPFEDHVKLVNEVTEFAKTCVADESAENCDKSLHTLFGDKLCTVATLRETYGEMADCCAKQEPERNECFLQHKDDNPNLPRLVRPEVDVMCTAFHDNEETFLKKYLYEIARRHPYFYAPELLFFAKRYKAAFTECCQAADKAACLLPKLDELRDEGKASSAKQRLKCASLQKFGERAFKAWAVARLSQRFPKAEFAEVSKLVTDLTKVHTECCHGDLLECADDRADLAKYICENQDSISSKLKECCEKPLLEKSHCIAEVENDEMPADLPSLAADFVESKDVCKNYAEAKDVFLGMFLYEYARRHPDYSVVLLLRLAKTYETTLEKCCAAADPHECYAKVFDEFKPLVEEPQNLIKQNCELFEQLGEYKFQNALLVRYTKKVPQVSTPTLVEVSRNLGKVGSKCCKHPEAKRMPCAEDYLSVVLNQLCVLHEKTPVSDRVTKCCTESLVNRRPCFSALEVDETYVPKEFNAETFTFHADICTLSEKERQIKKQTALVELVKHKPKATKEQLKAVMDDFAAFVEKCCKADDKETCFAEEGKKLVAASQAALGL
Description: Prepared HSA was diluted with phosphate-buffered saline (PBS) to a final concentration of 10 µmol/L, and 100 µL of this dilution was applied to a flat-bottomed, half area, polystyrene, black 96-well plate (Greiner Bio-One, Kremsmuenster, Austria). […] The resulting fluorescence was measured using FLUOstar OPTIMA microplate reader (BMG LABTECH, Ortenberg, Germany). Fluorescence excitation and emission detection were performed at 355 nm and 460 nm, respectively. Binding curves were fitted applying non-linear regression using GraphPad Prism Software (Version 5; GraphPad Software, San Diego, CA, USA) after subtraction of non-specific binding. Dissociation constants (Kd) were calculated at DS concentrations, where half-maximal fluorescence was reached.

The term Kd denotes the constant that tells how readily two partners part at equilibrium. Low values mean a tighter complex, high ones a looser complex. Compound `CN(C)c1cccc2c(S(=O)(=O)N(C)CC(=O)O)cccc12` [dansylsarcosine] returned a Kd (binding of dansylsarcosine to HSA of healthy donors) of 12 to 18 µM and a Kd (binding of dansylsarcosine to patients' HSA (chronic liver failure)) of 13 to 28 µM.
